Here are results for 20 compounds from US6635475B1, “Bacillus subtilis extracytoplasmic function σ factor” (Cornell Research Foundation, Inc., priority 1999, dated 2003).

Where a SMILES comes first, the peptide text is derived from it. Bridges are numbered along the chain shown (N, C = ends). [ ]: non-standard residue; d: D form. The star is where a group is joined. Ileψ(thiazoline)Cys = CC[C@H](C)[C@H](N)C1=N[C@H](C(=O)*)CS1; dOrn = NCCC[C@@H](N)C(=O)O

For this test, the system named is sigW mutant. Briefly: sigW mutant tested for increased sensitivity to chemical insults (zones of inhibition). It counts as cell-based, Bacillus subtilis. As to conditions: sigW mutant strain tested for increased sensitivity to a variety of chemical insults. An excerpt:
Identification of members of the σ^W regulon allows prediction of the phenotypes likely to be associated with a sigW mutation. A sigW mutant strain is not grossly defective in any of the well-characterized processes associated with post-exponential phase, including sporulation, competence, and protein secretion. It has been previously reported that sigW transcription is not induced by a temperature shift from 37 to 50 degrees C. (Huang et al., 1998) and the same is true for the four tested members of the σ^W regulon (ydbS, yeaA, yxjI, ysdB). Since several members of the σ^W regulon encode enzymes with a predicted detoxification function (FIG. 3), a sigW mutant was tested for increased sensitivity to a variety of chemical insults.
For nisin, the “differences in the zones of inhibition” value is listed as “no differences”.
As for `CC1(C)S[C@@H]2[C@H](NC(=O)[C@H](N)c3ccccc3)C(=O)N2[C@H]1C(=O)O` [ampicillin], the “differences in the zones of inhibition” value is listed as “no differences”.
neomycin: the “differences in the zones of inhibition” value is given as “no differences”.
On to `O[C@H](CS)[C@H](O)CS` (racemic) [dithiothreitol], for which the “differences in the zones of inhibition” value is “no differences”.
Next, `CN[C@@H]1[C@H](O)[C@H](NC)[C@H]2O[C@@]3(O)C(=O)C[C@@H](C)O[C@H]3O[C@@H]2[C@H]1O` [spectinomycin]: “no differences”.
For `[Fe+3]` [Fe^3+] the value was “no differences”; for `OO` [hydrogen peroxide], “no differences”; for `[Cl-].[Na+]` [NaCl], “no differences”.
Take polymyxins: the “differences in the zones of inhibition” value is “no differences”.
Turning to `Cl` [HCI], the “differences in the zones of inhibition” value is reported as “no differences”.
For `[Mn+2]` [Mn^2+] the value was “no differences”; for gentamicin sulfate, “no differences”.
Next, `O=C(O)CN(CCN(CC(=O)O)CC(=O)O)CC(=O)O` [EDTA]: “no differences”.
For `OCCS` [2-mercaptoethanol] the value was “no differences”.
For `O=C(N[C@H](CO)[C@H](O)c1ccc([N+](=O)[O-])cc1)C(Cl)Cl` [chloramphenicol], the “differences in the zones of inhibition” value is reported as “no differences”.
Next, lysozyme: “no differences”; `[Na+].[OH-]` [NAOH]: “no differences”; `CC[C@H](C)[C@H](N)C1=N[C@H](C(=O)N[C@@H](CC(C)C)C(=O)N[C@H](CCC(=O)O)C(=O)N[C@H](C(=O)N[C@H]2CCCCNC(=O)[C@H](CC(N)=O)NC(=O)[C@@H](CC(=O)O)NC(=O)[C@H](Cc3cnc[nH]3)NC(=O)[C@@H](Cc3ccccc3)NC(=O)[C@H]([C@@H](C)CC)NC(=O)[C@@H](CCCN)NC2=O)[C@@H](C)CC)CS1` [bacitracin] ({Ileψ(thiazoline)Cys}-L[dE]IK[dOrn]I[dF]H[dD]N; lactam 4-C): “no differences”.
Next, `CCCCCCCCCCCCOS(=O)(=O)[O-].[Na+]` [sodium dodecyl sulfate]: “no differences”.
For `C[n+]1ccc(-c2cc[n+](C)cc2)cc1` [methyl viologen] the value was “no differences”.
